Common to all, as to assay type: cell-based
The subject of assay [1] is HT29 cells, Her2-non-expressing. The assay can be described thus: In vitro cell assay, cell viability by MTS, HT29. Conditions: Homo sapiens, HT-29, 96 h, read-out: Average IC50, HT29. As for the experimental part:
(§1) Her2-Target expressing (BT474 (breast cancer), N87 (gastric cancer), MDA-MB-361-DYT2 (breast cancer)) or Her2-non-expressing (MDA-MB-468, HT29) cells, or 0033-target expressing HL60, HEL92.1.7, NB4, TF-1 or 0033-non-expressing (Raji) cells were seeded in 96-well cell culture plates for 24 hours before treatment. Cells were treated with 3-fold serially diluted antibody-drug conjugates or free compounds (i.e., no antibody conjugated to the drug) in duplicate at 10 concentrations. Cell viability was determined by CellTiter 96® AQueous One Solution Cell Proliferation MTS Assay (Promega, Madison WI) 96 hours after treatment. Relative cell viability was determined as percentage of untreated control. IC50 values were calculated using a four parameter logistic model #203 with XLfit v4.2 (IDBS, Guildford, Surry, UK). Results are shown below in Table 3 (for payloads), Table 4 (for Herceptin conjugates), and Table 5 (for CD33 conjugates).

For assay [2], the system named is MDA-MB-361-DYT2 (breast cancer) cells, Her2-target expressing. The assay can be described thus: In vitro cell assay, cell viability by MTS, MDA-MB-361-DYT2. The settings on record: 96 h, read-out: Average IC50, MDA-MB-361-DYT2. The protocol:
as §1

Assay [3] deals with N87 (gastric cancer) cells, Her2-target expressing. Nature of the assay: In vitro cell assay, cell viability by MTS, N87. Conditions: 96 h, read-out: Average IC50, N87. As for the experimental part: as §1
Assay [4] deals with HL60 cells, CD33-target expressing. Nature of the assay: In vitro cell assay, cell viability by MTS, HL60. Conditions: Homo sapiens, HL-60, 96 h, read-out: Average IC50, HL-60. As for the experimental part: as §1
Assay [5] has as its system TF-1 cells, CD33-target expressing. Nature of the assay: In vitro cell assay, cell viability by MTS, TF-1. Conditions: Homo sapiens, TF-1, 96 h, read-out: Average IC50, TF-1. As for the experimental part:
as §1

The subject of assay [6] is Raji cells, CD33-non-expressing. The assay can be described thus: In vitro cell assay, cell viability by MTS, Raji. The settings on record: Homo sapiens, 96 h, read-out: Average IC50, Raji. The protocol: as §1

Bounds are passed on as bounds.

Consider `CCN[C@H]1CO[C@@H](O[C@H]2[C@H](O[C@H]3C#C/C=C\C#C[C@]4(O)CC(=O)C(NC(=O)OC)=C3/C4=C\CSSC(C)C(=O)O)O[C@H](C)[C@@H](NO[C@H]3C[C@H](O)[C@H](SC(=O)c4c(C)c(I)c(O[C@@H]5O[C@@H](C)[C@H](O)[C@@H](OC)[C@H]5O)c(OC)c4OC)[C@@H](C)O3)[C@@H]2O)C[C@@H]1OC` (mixture of isomers) [Example P9], for which the IC50 (usually the concentration needed to halve the response being measured) stood at 0.334 nM in assay [1], 1.89 nM in assay [2] and 0.392 nM in assay [3].
As to `CCNC1COC(OC2C(OC3C#C/C=C\C#C[C@]4(O)CC(=O)C(NC(=O)OC)=C3/C4=C\CSSC3CC3)OC(C)C(NOC3CC(O)C(SC(=O)c4c(C)c(I)c(OC5OC(C)C(O)C(OC)C5O)c(OC)c4OC)C(C)O3)C2O)CC1OC` (stereo in doubt) [Example P18], the IC50 was determined as 0.005 nM in assay [1]; 0.017 nM in assay [2]; 0.005 nM in assay [4]; 0.093 nM in assay [5]; 0.003 nM in assay [6]; 0.033 nM in assay [3].
Take `CCNC1COC(OC2C(OC3C#C/C=C\C#C[C@]4(O)CC(=O)C(NC(=O)OC)=C3/C4=C\CSSC3CCCC3)OC(C)C(NOC3CC(O)C(SC(=O)c4c(C)c(I)c(OC5OC(C)C(O)C(OC)C5O)c(OC)c4OC)C(C)O3)C2O)CC1OC` (stereo in doubt) [Example P20]: the results for the IC50 in assay [1], in assay [2] and in assay [3] were 0.002 nM, 0.005 nM and 0.004 nM, respectively.
The corresponding values for `CCNC1COC(OC2C(OC3C#C/C=C\C#C[C@]4(O)CC(=O)C(NC(=O)OC)=C3/C4=C\CSSC3CCCCC3)OC(C)C(NOC3CC(O)C(SC(=O)c4c(C)c(I)c(OC5OC(C)C(O)C(OC)C5O)c(OC)c4OC)C(C)O3)C2O)CC1OC` (stereo in doubt) [Example P21] are 0.012 nM, 0.064 nM and 0.013 nM.
Regarding `CCN[C@H]1CO[C@@H](O[C@@H]2C(O)[C@H](NO[C@H]3C[C@H](O)[C@H](SC(=O)c4c(C)c(I)c(O[C@@H]5O[C@@H](C)[C@H](O)[C@@H](OC)[C@H]5O)c(OC)c4OC)[C@@H](C)O3)[C@@H](C)O[C@H]2O[C@H]2C#C/C=C\C#C[C@]3(O)CC(=O)C(NC(=O)OC)=C2/C3=C\CSSc2ccncc2)C[C@@H]1OC` (stereo in doubt) [Example P44], the IC50 was 1.26 nM in assay [1]; above 10 nM in assay [2]; 0.127 nM in assay [4]; 1.48 nM in assay [5]; 0.171 nM in assay [6]; 0.418 nM in assay [3].
Regarding `CCN[C@H]1CO[C@@H](O[C@H]2[C@H](O[C@H]3C#C/C=C\C#C[C@]4(O)CC(=O)C(NC(=O)OC)=C3/C4=C\CSSC(C)(C)CCN)O[C@H](C)[C@@H](NO[C@H]3C[C@H](O)[C@H](SC(=O)c4c(C)c(I)c(O[C@@H]5O[C@@H](C)[C@H](O)[C@@H](OC)[C@H]5O)c(OC)c4OC)[C@@H](C)O3)[C@@H]2O)C[C@@H]1OC` [Example P8], the 50% inhibitory concentration (IC50) in assay [1] came to 0.07 nM; in assay [2], 0.063 nM; in assay [4], 0.081 nM; in assay [5], 0.36 nM; in assay [6], 0.028 nM; in assay [3], 0.804 nM.
For `CCN[C@H]1CO[C@@H](O[C@H]2[C@H](O[C@H]3C#C/C=C\C#C[C@]4(O)CC(=O)C(NC(=O)OC)=C3/C4=C\CSSC[C@H](NC(=O)CC[C@H](N)C(=O)O)C(=O)NCC(=O)O)O[C@H](C)[C@@H](NO[C@H]3C[C@H](O)[C@H](SC(=O)c4c(C)c(I)c(O[C@@H]5O[C@@H](C)[C@H](O)[C@@H](OC)[C@H]5O)c(OC)c4OC)[C@@H](C)O3)[C@@H]2O)C[C@@H]1OC` [Example P14], the 50% inhibitory concentration (IC50) in assay [1] stood at 2.22 nM; in assay [2], 15.6 nM; in assay [3], 2.73 nM.
The corresponding values for `CCN[C@H]1CO[C@@H](O[C@H]2[C@H](O[C@H]3C#C/C=C\C#C[C@]4(O)CC(=O)C(NC(=O)OC)=C3/C4=C\CSSC3CCN(C)CC3)O[C@H](C)[C@@H](NO[C@H]3C[C@H](O)[C@H](SC(=O)c4c(C)c(I)c(O[C@@H]5O[C@@H](C)[C@H](O)[C@@H](OC)[C@H]5O)c(OC)c4OC)[C@@H](C)O3)[C@@H]2O)C[C@@H]1OC` [Example P15] are 0.12 nM, 0.077 nM and 0.077 nM.
The corresponding values for `CCN[C@H]1CO[C@@H](O[C@H]2[C@H](O[C@H]3C#C/C=C\C#C[C@]4(O)CC(=O)C(NC(=O)OC)=C3/C4=C\CSSC3CCN(C(=O)OC(C)(C)C)CC3)O[C@H](C)[C@@H](NO[C@H]3C[C@H](O)[C@H](SC(=O)c4c(C)c(I)c(O[C@@H]5O[C@@H](C)[C@H](O)[C@@H](OC)[C@H]5O)c(OC)c4OC)[C@@H](C)O3)[C@@H]2O)C[C@@H]1OC` [Example P17] are 0.501 nM, 0.152 nM and 2.38 nM.
The corresponding values for `CCN[C@H]1CO[C@@H](O[C@H]2[C@H](O[C@H]3C#CC=CC#C[C@]4(O)CC(=O)C(NC(=O)OC)=C3/C4=C\CSSC3CCC3)O[C@H](C)[C@@H](NO[C@H]3C[C@H](O)[C@H](SC(=O)c4c(C)c(I)c(O[C@@H]5O[C@@H](C)[C@H](O)[C@@H](OC)[C@H]5O)c(OC)c4OC)[C@@H](C)O3)[C@@H]2O)C[C@@H]1OC` [Example P19] are 0.004 nM, 0.005 nM and 0.005 nM.
For `CCN[C@H]1CO[C@@H](O[C@H]2[C@H](O[C@H]3C#C/C=C\C#C[C@]4(O)CC(=O)C(NC(=O)OC)=C3/C4=C\CSSC34CC5CC(CC(C5)C3)C4)O[C@H](C)[C@@H](NO[C@H]3C[C@H](O)[C@H](SC(=O)c4c(C)c(I)c(O[C@@H]5O[C@@H](C)[C@H](O)[C@@H](OC)[C@H]5O)c(OC)c4OC)[C@@H](C)O3)[C@@H]2O)C[C@@H]1OC` [Example P22], the results for the 50% inhibitory concentration (IC50) in assay [1], in assay [2] and in assay [3] were 0.009 nM, 0.044 nM and 0.015 nM, respectively.
The corresponding values for `CCN[C@H]1CO[C@@H](O[C@H]2[C@H](O[C@H]3C#C/C=C\C#C[C@]4(O)CC(=O)C(NC(=O)OC)=C3/C4=C\CSSC(C)(C)C#N)O[C@H](C)[C@@H](NO[C@H]3C[C@H](O)[C@H](SC(=O)c4c(C)c(I)c(O[C@@H]5O[C@@H](C)[C@H](O)[C@@H](OC)[C@H]5O)c(OC)c4OC)[C@@H](C)O3)[C@@H]2O)C[C@@H]1OC` [Example P23] are 0.012 nM, 0.007 nM and 0.005 nM.
Turning to `CCN[C@H]1CO[C@@H](O[C@H]2[C@H](O[C@H]3C#C/C=C\C#C[C@]4(O)CC(=O)C(NC(=O)OC)=C3/C4=C\CSSC(C)(C)c3cccnc3N)O[C@H](C)[C@@H](NO[C@H]3C[C@H](O)[C@H](SC(=O)c4c(C)c(I)c(O[C@@H]5O[C@@H](C)[C@H](O)[C@@H](OC)[C@H]5O)c(OC)c4OC)[C@@H](C)O3)[C@@H]2O)C[C@@H]1OC` [Example P26], the IC50 in assay [1] was determined as 0.004 nM; in assay [2] it was 0.017 nM; in assay [4], 0.002 nM; in assay [5], 0.036 nM; in assay [6] it was 0.004 nM; in assay [3] it was 0.035 nM.
For `CCN[C@H]1CO[C@@H](O[C@H]2[C@H](O[C@H]3C#C/C=C\C#C[C@]4(O)CC(=O)C(NC(=O)OC)=C3/C4=C\CSSC(C)(C)c3ccc(N)cc3)O[C@H](C)[C@@H](NO[C@H]3C[C@H](O)[C@H](SC(=O)c4c(C)c(I)c(O[C@@H]5O[C@@H](C)[C@H](O)[C@@H](OC)[C@H]5O)c(OC)c4OC)[C@@H](C)O3)[C@@H]2O)C[C@@H]1OC` [Example P27], the 50% inhibitory concentration (IC50) in assay [1] was 0.006 nM; in assay [2], 0.003 nM; in assay [4] it was 0.004 nM; in assay [5] it was 0.02 nM; in assay [6], 0.002 nM; in assay [3], 0.04 nM.
As for `CCN[C@H]1CO[C@@H](O[C@H]2[C@H](O[C@H]3C#C/C=C\C#C[C@]4(O)CC(=O)C(NC(=O)OC)=C3/C4=C\CSSC(C)(C)c3ccc(C(=O)O)cc3)O[C@H](C)[C@@H](NO[C@H]3C[C@H](O)[C@H](SC(=O)c4c(C)c(I)c(O[C@@H]5O[C@@H](C)[C@H](O)[C@@H](OC)[C@H]5O)c(OC)c4OC)[C@@H](C)O3)[C@@H]2O)C[C@@H]1OC` [Example P29], the IC50 in assay [1] was determined as 0.036 nM; in assay [2], 0.025 nM; in assay [4] it was 0.025 nM; in assay [5], 0.466 nM; in assay [6], 0.015 nM; in assay [3] it was 0.17 nM.
Consider `CCN[C@H]1CO[C@@H](O[C@H]2[C@H](O[C@H]3C#C/C=C\C#C[C@]4(O)CC(=O)C(NC(=O)OC)=C3/C4=C\CSSC(C)(C)CC(N)=O)O[C@H](C)[C@@H](NO[C@H]3C[C@H](O)[C@H](SC(=O)c4c(C)c(I)c(O[C@@H]5O[C@@H](C)[C@H](O)[C@@H](OC)[C@H]5O)c(OC)c4OC)[C@@H](C)O3)[C@@H]2O)C[C@@H]1OC` [Example P30], for which the concentration for half-maximal inhibition (IC50) is 0.057 nM in assay [1]; 0.049 nM in assay [2]; 0.049 nM in assay [4]; 0.112 nM in assay [5]; 0.03 nM in assay [6]; 0.308 nM in assay [3].
